In ChEMBL document CHEMBL5576043, “Synthesis, radiosynthesis and biochemical evaluation of fluorinated analogues of sphingosine-1-phosphate receptor 3 specific antagonists using PET” (Bioorg Med Chem, 2024):

What was measured:
[1] = Drug uptake in C57/BL6 mouse liver at 5 MBq, iv administered as bolus injection and measured at 90 min by PET imaging analysis; assay type: ADME, organism-based; details: in vivo, 1.5 h
[2] = Drug accumulation in C57/BL6 mouse spleen at 5 MBq, iv administered as bolus injection and measured at 6 to 15 mins by imaging analysis; assay type: ADME, organism-based; details: in vivo, time 6-15 min
[3] = Drug accumulation in C57/BL6 mouse lungs at 5 MBq, iv administered as bolus injection and measured at 0 to 5 mins by imaging analysis; assay type: ADME, organism-based, Lung; details: in vivo, time 0-5 min
[4] = Drug uptake in C57/BL6 mouse spleen at 5 MBq, iv administered as bolus injection and measured within 4.5 min by PET imaging analysis; assay type: ADME, organism-based; details: in vivo, 0.075 h
[5] = Drug accumulation in C57/BL6 mouse heart at 5 MBq, iv administered as bolus injection and measured at 15 to 90 mins by imaging analysis; assay type: ADME, organism-based; details: in vivo, time 15-90 min
[6] = Drug uptake in C57/BL6 mouse kidney at 5 MBq, iv administered as bolus injection and measured at 1.2 min by PET imaging analysis; assay type: ADME, organism-based; details: in vivo, 0.02 h
[7] = Drug accumulation in C57/BL6 mouse spleen at 5 MBq, iv administered as bolus injection and measured at 15 to 90 mins by imaging analysis; assay type: ADME, organism-based; details: in vivo, time 15-90 min
[8] = 1-Octanol/PBS partition coefficient, logD of the compound at pH 7.4 incubated for 3 mins; assay type: physicochemical
[9] = Drug uptake in C57/BL6 mouse lung at 5 MBq, iv administered as bolus injection and measured at 12 sec by PET imaging analysis; assay type: ADME, organism-based; details: in vivo, 12 s
[10] = Drug uptake in C57/BL6 mouse brain at 5 MBq, iv administered as bolus injection and measured at 90 min by PET imaging analysis; assay type: ADME, organism-based; details: in vivo, 1.5 h
[11] = Drug accumulation in C57/BL6 mouse heart at 5 MBq, iv administered as bolus injection and measured at 6 to 15 mins by imaging analysis; assay type: ADME, organism-based; details: in vivo, time 6-15 min
[12] = Drug metabolism in formulated solution assessed as decomposition mediated metabolite formation by measuring retention time after 180 mins by radio-HPLC analysis; assay type: ADME; details: 3 h
[13] = Drug uptake in C57/BL6 mouse heart at 5 MBq, iv administered as bolus injection and measured at 14.2 min by PET imaging analysis; assay type: ADME, organism-based; details: in vivo, 0.2367 h
[14] = Drug metabolism in mouse serum assessed as decomposition mediated metabolite formation at 37 degreeC measured after 10 to 90 mins by radio-HPLC analysis; assay type: ADME, cell-free; details: time 10-90 min
[15] = Drug uptake in C57/BL6 mouse kidney at 5 MBq, iv administered as bolus injection and measured at 90 min by PET imaging analysis; assay type: ADME, organism-based; details: in vivo, 1.5 h
[16] = Drug uptake in C57/BL6 mouse blood at 5 MBq, iv administered as bolus injection and measured within 24 sec by PET imaging analysis; assay type: ADME, organism-based; details: in vivo, 24 s
[17] = Retention time of compound by radio-HPLC analysis; assay type: physicochemical
[18] = Drug uptake in C57/BL6 mouse heart at 5 MBq, iv administered as bolus injection and measured at 4.2 min by PET imaging analysis; assay type: ADME, organism-based; details: in vivo, 0.07 h
[19] = Drug uptake in C57/BL6 mouse intestine at 5 MBq, iv administered as bolus injection and measured at 15 to 90 mins by imaging analysis; assay type: ADME, organism-based; details: in vivo, time 15-90 min
[20] = Stability in mouse serum measured after 90 mins by radio-HPLC analysis; assay type: ADME, cell-free; details: 1.5 h
[21] = Drug uptake in C57/BL6 mouse kidney at 5 MBq, iv administered as bolus injection and measured for 90 mins by imaging analysis; assay type: ADME, organism-based; details: in vivo, 1.5 h
[22] = Drug uptake in C57/BL6 mouse spleen at 5 MBq, iv administered as bolus injection and measured after 90 min by PET imaging analysis; assay type: ADME, organism-based; details: in vivo, 1.5 h
[23] = Drug uptake in C57/BL6 mouse heart at 5 MBq, iv administered as bolus injection and measured at 24 sec by PET imaging analysis; assay type: ADME, organism-based; details: in vivo, 24 s
[24] = Drug accumulation in C57/BL6 mouse liver at 5 MBq, iv administered as bolus injection and measured upto 15 mins by imaging analysis; assay type: ADME, organism-based; details: in vivo, 0.25 h
[25] = Drug uptake in C57/BL6 mouse blood at 5 MBq, iv administered as bolus injection and measured at 12 sec by PET imaging analysis; assay type: ADME, organism-based; details: in vivo, 12 s
[26] = Drug uptake in C57/BL6 mouse lung at 5 MBq, iv administered as bolus injection and measured within 4.5 min by PET imaging analysis; assay type: ADME, organism-based; details: in vivo, 0.075 h
[27] = Drug uptake in C57/BL6 mouse heart at 5 MBq, iv administered as bolus injection and measured at 90 min by PET imaging analysis; assay type: ADME, organism-based; details: in vivo, 1.5 h
[28] = Drug uptake in C57/BL6 mouse muscle tissue at 5 MBq, iv administered as bolus injection and measured at 60 min by PET imaging analysis; assay type: ADME, organism-based; details: in vivo, 1 h
[29] = Drug uptake in C57/BL6 mouse blood at 5 MBq, iv administered as bolus injection and measured after 90 mins by PET imaging analysis; assay type: ADME, organism-based; details: in vivo, 1.5 h
[30] = Drug metabolism in formulated solution assessed as 4-[18F]fluoroaniline metabolite formation by measuring retention time after 180 mins by radio-HPLC analysis; assay type: ADME; details: 3 h
[31] = Drug uptake in C57/BL6 mouse lymph node at 5 MBq, iv administered as bolus injection and measured at 60 min by PET imaging analysis; assay type: ADME, organism-based; details: in vivo, 1 h
[32] = Drug metabolism in human serum assessed as decomposition mediated metabolite formation measured after 90 mins by radio-HPLC analysis; assay type: ADME, cell-free; details: 1.5 h
[33] = Drug uptake in C57/BL6 mouse urinary bladder at 5 MBq, iv administered as bolus injection and measured for 90 mins by imaging analysis; assay type: ADME, organism-based; details: in vivo, 1.5 h
[34] = Drug uptake in C57/BL6 mouse liver at 5 MBq, iv administered as bolus injection and measured at ~5 min by PET imaging analysis; assay type: ADME, organism-based; details: in vivo

**Q.** Which results are given for `CC(C)(C)C(=O)/C(=N\Nc1ccc(Cl)cc1)Nc1ccc([18F])cc1`?
**A.** Drug uptake [1]: 10 %ID/cm3; Drug uptake [2]: Active; Drug uptake [3]: Active; Drug uptake [4]: 11 %ID/cm3; Drug uptake [5]: Not Active; Drug uptake [6]: 8 %ID/cm3; Drug uptake [7]: Not Active; logD at 0.05 h [8]: 1.55; Drug uptake [9]: 13 %ID/cm3; Drug uptake [10]: 3.9 %ID/cm3; Drug uptake [11]: Active; Retention_time [12]: 16.9 min; Drug uptake [13]: 6 %ID/cm3; Drug metabolism [14]: Metabolite_Detected; Drug uptake [15]: 4 %ID/cm3; Drug uptake [16]: Not Active; Retention_time [17]: 15.9 min; Drug uptake [18]: 5 %ID/cm3; Drug uptake [19]: Active; Stability [20]: Stable; Drug uptake [21]: Not Active; Drug uptake [22]: 3 %ID/cm3; Drug uptake [23]: 7 %ID/cm3; Drug uptake [24]: Active; Drug uptake [25]: 37.5 %ID/cm3; Drug uptake [26]: Not Active; Drug uptake [27]: 3 %ID/cm3; Drug uptake [28]: 1.9 %ID/cm3; Drug uptake [29]: Not Active; Retention_time [30]: 4.5 min; Drug uptake [31]: 2.1 %ID/cm3; Drug metabolism [32]: ~ 7%; Drug uptake [33]: Not Active; Drug uptake [34]: 41 %ID/cm3
